Data reported in patent US8741944B2, “Anti-infective agents against intracellular pathogens” (priority 2007, dated 2014).
Where “and” joins values, the source holds several entries; their conditions need not be identical. Equal values may be shown once.

Assays:
[1] = system: SN12C (Renal Cancer); assay: NCI DTP tumor cell line screen (SRB), SN12C
Method: (§1) For a typical screening experiment, cells are inoculated into 96 well microtiter plates in 100 μL at plating densities ranging from 5,000 to 40,000 cells/well depending on the doubling time of individual cell lines. After cell inoculation, the microtiter plates are incubated at 37° C., 5% CO2, 95% air and 100% relative humidity for 24 h prior to addition of experimental drugs.
(§2) After 24 h, two plates of each cell line are fixed in situ with TCA, to represent a measurement of the cell population for each cell line at the time of drug addition (Tz). Experimental drugs are solubilized in dimethyl sulfoxide at 400-fold the desired final maximum test concentration and stored frozen prior to use. At the time of drug addition, an aliquot of frozen concentrate is thawed and diluted to twice the desired final maximum test concentration with complete medium containing 50 μg/ml gentamicin. Additional four, 10-fold or ½ log serial dilutions are made to provide a total of five drug concentrations plus control. Aliquots of 100 μl of these different drug dilutions are added to the appropriate microtiter wells already containing 100 μl of medium, resulting in the required final drug concentrations.
(§3) Following drug addition, the plates are incubated for an additional 48 h at 37° C., 5% CO2, 95% air, and 100% relative humidity. For adherent cells, the assay is terminated by the addition of cold TCA. Cells are fixed in situ by the gentle addition of 50 μl of cold 50% (w/v) TCA (final concentration, 10% TCA) and incubated for 60 minutes at 4° C. The supernatant is discarded, and the plates are washed five times with tap water and air dried. Sulforhodamine B (SRB) solution (1001) at 0.4% (w/v) in 1% acetic acid is added to each well, and plates are incubated for 10 minutes at room temperature. After staining, unbound dye is removed by washing five times with 1% acetic acid and the plates are air dried. Bound stain is subsequently solubilized with 10 mM trizma base, and the absorbance is read on an automated plate reader at a wavelength of 515 nm. For suspension cells, the methodology is the same except that the assay is terminated by fixing settled cells at the bottom of the wells by gently adding 50 μl of 80% TCA (final concentration, 16% TCA). Using the seven absorbance measurements [time zero, (Tz), control growth, (C), and test growth in the presence of drug at the five concentration levels (Ti)], the percentage growth is calculated at each of the drug concentrations levels. Percentage growth inhibition is calculated as: [(Ti−Tz)/(C−Tz)]×100 for concentrations for which Ti>/=Tz [(Ti−Tz)/Tz]×100 for concentrations for which Ti<Tz
(§4) Three dose response parameters are calculated for each experimental agent. […] The drug concentration resulting in total growth inhibition (TGI) is calculated from Ti=Tz. […] Values are calculated for each of these three parameters if the level of activity is reached; however, if the effect is not reached or is exceeded, the value for that parameter is expressed as greater or less than the maximum or minimum concentration tested.

[2] = system: RXF 393 (Renal Cancer); assay: NCI DTP tumor cell line screen (SRB), RXF 393
Method: as §1, §2, §3, §4

[3] = system: SK-MEL-28 (Melanoma); assay: NCI DTP tumor cell line screen (SRB), SK-MEL-28
Method: as §1, §2, §3, §4

[4] = system: HOP-62 (Non-Small Cell Lung Cancer); assay: NCI DTP tumor cell line screen (SRB), HOP-62
Method: as §1, §2, §3, §4

[5] = system: SK-MEL-2 (Melanoma); assay: NCI DTP tumor cell line screen (SRB), SK-MEL-2
Method: as §1, §2, §3, §4

[6] = system: COLO 205 (Colon Cancer); assay: NCI DTP tumor cell line screen (SRB), COLO 205
Method: as §1, §2, §3, §4

[7] = system: MDA-MB-435 (Breast Cancer); assay: NCI DTP tumor cell line screen (SRB), MDA-MB-435
Method: as §1, §2, §3, §4

[8] = system: MCF7 (Breast Cancer); assay: NCI DTP tumor cell line screen (SRB), MCF7
Method: as §1, §2, §3, §4

[9] = system: SW-620 (Colon Cancer); assay: NCI DTP tumor cell line screen (SRB), SW-620
Method: as §1, §2, §3, §4

[10] = system: A498 (Renal Cancer); assay: NCI DTP tumor cell line screen (SRB), A498
Method: as §1, §2, §3, §4

[11] = system: CCRF-CEM (Leukemia); assay: NCI DTP tumor cell line screen (SRB), CCRF-CEM
Method: as §1, §2, §3, §4

[12] = system: CAKI-1 (Renal Cancer); assay: NCI DTP tumor cell line screen (SRB), CAKI-1
Method: as §1, §2, §3, §4

[13] = system: LOX IMVI (Melanoma); assay: NCI DTP tumor cell line screen (SRB), LOX IMVI
Method: as §1, §2, §3, §4

[14] = system: sixty human tumor cell lines; assay: NCI DTP sixty human tumor cell line screen (SRB), means over the panel
[15] = system: RPMI-8226 (Leukemia); assay: NCI DTP tumor cell line screen (SRB), RPMI-8226
Method: as §1, §2, §3, §4

[16] = system: PC-3 (Prostate Cancer); assay: NCI DTP tumor cell line screen (SRB), PC-3
Method: as §1, §2, §3, §4

4-[5-(2-Phenanthrenyl)-3-(trifluoromethyl)-1H-pyrazol-1-yl]-phenyl -guanidine [Compound 71]
GI50 [1]: 1570 nM | TGI [1]: 2.91E−06 | Percent Growth ([1]; Log10 Concentration −4.0): −62% | Percent Growth ([1]; Log10 Concentration −5.0): −100% | Percent Growth ([1]; Log10 Concentration −7.0): 78% | TGI ([2]; RXF 383): 2.91E−06 | Percent Growth ([2]; RXF 383, Log10 Concentration −4.0): −4% | Percent Growth ([2]; RXF 383, Log10 Concentration −6.0): 53% | Percent Growth ([2]; RXF 383, Log10 Concentration −7.0): 53% | Percent Growth ([2]; RXF 383, Log10 Concentration −8.0): 42% | GI50 [3]: 1560 nM | TGI [3]: 2.89E−06 | Percent Growth ([3]; Log10 Concentration −4.0): −53% | Percent Growth ([3]; Log10 Concentration −5.0): −100% | Percent Growth ([3]; Log10 Concentration −7.0): 90% | GI50 [4]: 1720 nM | Percent Growth ([4]; Log10 Concentration −4.0): −36% | Percent Growth ([4]; Log10 Concentration −5.0): −98% | Percent Growth ([4]; Log10 Concentration −7.0): 97% | Percent Growth ([4]; Log10 Concentration −8.0): 100% | GI50 [5]: 1570 nM | TGI [5]: 2.91E−06 | Percent Growth ([5]; Log10 Concentration −4.0): −29% | Percent Growth ([5]; Log10 Concentration −5.0): −100% | Percent Growth ([5]; Log10 Concentration −7.0): 97% | Percent Growth ([5]; Log10 Concentration −8.0): 85% | GI50 [6]: 1360 nM | TGI [6]: 2.69E−06 | Percent Growth ([6]; Log10 Concentration −4.0): −32% | Percent Growth ([6]; Log10 Concentration −6.0): 73% | Percent Growth ([6]; Log10 Concentration −7.0): 83% | Percent Growth ([6]; Log10 Concentration −8.0): 95% | GI50 [7]: 1700 nM | TGI [7]: 3.07E−06 | Percent Growth ([7]; Log10 Concentration −4.0): −27% | Percent Growth ([7]; Log10 Concentration −5.0): −100% | Percent Growth ([7]; Log10 Concentration −6.0): 95% | GI50 [8]: 1820 nM | TGI [8]: 3.44E−06 | Percent Growth ([8]; Log10 Concentration −4.0): −49% | Percent Growth ([8]; Log10 Concentration −6.0): 97% | Percent Growth ([8]; Log10 Concentration −7.0): 82% | GI50 [9]: 1750 nM | TGI [9]: 3.13E−06 | Percent Growth ([9]; Log10 Concentration −4.0): −92% | Percent Growth ([9]; Log10 Concentration −5.0): −100% | Percent Growth ([9]; Log10 Concentration −6.0): 98% | Percent Growth ([9]; Log10 Concentration −7.0): 91% | Percent Growth ([9]; Log10 Concentration −8.0): 83% | GI50 [10]: 16500 nM | TGI [10]: 4.35E−05 | Percent Growth ([10]; Log10 Concentration −4.0): −43% | Percent Growth ([10]; Log10 Concentration −5.0): 76% | Percent Growth ([10]; Log10 Concentration −6.0): 73% | Percent Growth ([10]; Log10 Concentration −7.0): 91% | Percent Growth ([10]; Log10 Concentration −8.0): 116% | GI50 [11]: 1230 nM | TGI [11]: 2.48E−06 | Percent Growth ([11]; Log10 Concentration −4.0): −53% | Percent Growth ([11]; Log10 Concentration −5.0): −99% | Percent Growth ([11]; Log10 Concentration −6.0): 65% | Percent Growth ([11]; Log10 Concentration −7.0): 79% | Percent Growth ([11]; Log10 Concentration −8.0): 78% | GI50 [12]: 1830 nM | TGI [12]: 3.22E−06 | Percent Growth ([12]; Log10 Concentration −4.0): −47% | Percent Growth ([12]; Log10 Concentration −5.0): −100% | Percent Growth ([12]; Log10 Concentration −6.0): 103% | Percent Growth ([12]; Log10 Concentration −8.0): 97% | GI50 [13]: 1340 nM | TGI [13]: 2.65E−06 | Percent Growth ([13]; Log10 Concentration −4.0): −53% | Percent Growth ([13]; Log10 Concentration −5.0): −98% | Percent Growth ([13]; Log10 Concentration −6.0): 72% | Percent Growth ([13]; Log10 Concentration −8.0): 73% | concentration range completely suppressing cell growth in a diverse range of tumor cell lines [14]: 3 to 5 µM | GI50 ([14]; read-out: mean GI50 among the sixty cell lines, two-day treatment): 1200 nM and 1300 nM | CC50 ([14]; read-out: mean LC50 among the sixty cell lines, two-day treatment): 8500 nM | mean TGI among the sixty cell lines ([14]; two-day treatment): 2900 nM | GI50 [15]: 1030 nM | TGI [15]: 2.25E−06 | Percent Growth ([15]; Log10 Concentration −4.0): −47% | Percent Growth ([15]; Log10 Concentration −5.0): −95% | Percent Growth ([15]; Log10 Concentration −6.0): 52% | Percent Growth ([15]; Log10 Concentration −7.0): 65% | Percent Growth ([15]; Log10 Concentration −8.0): 58% | GI50 [16]: 1380 nM | TGI [16]: 2.67E−06 | Percent Growth ([16]; Log10 Concentration −5.0): −100% | Percent Growth ([16]; Log10 Concentration −6.0): 75% | Percent Growth ([16]; Log10 Concentration −7.0): 73% | Percent Growth ([16]; Log10 Concentration −8.0): 75%
